The numbers were not newly measured in US6808938B2, “Method and apparatus for assaying a drug candidate to estimate a pharmacokinetic parameter associated therewith” (Biacore AB, priority 1999, dated 2004), which cites them from elsewhere.

The structures appear in SMILES notation. Where only a bound is given, the exact number is not on record here.

The conditions of this series: stated to explain lack of correlation at 500 μM in FIG. 7.

What is called Solubility is the dissolved amount per volume that the medium holds. Consider `CN1C(C(=O)Nc2ccccn2)=C(O)c2ccccc2S1(=O)=O` [Piroxicam], for which the Solubility was under 500 µM.
